# Assay results published in patent US20120277180A1, “Cofactors and Methods for Use for Individuals” (VITAPATH GENETICS, INC, priority 2009, published 2012).
# Entries after “also recorded” stand apart in the source; their conditions may differ. Like-named read-outs stand apart in the source and are kept apart here.
# Assays:
# [1] = tested on: human MTHFR; assay: In vivo yeast complementation growth assay: MTHFR alleles in fol3 met13 haploid yeast, growth without methionine with titrated folinic acid; type: cell-based; settings: for Functional impact / folate-responsiveness of MTHFR allele (growth in the absence of methionine): over a range of folinic acid concentrations, relative to the major allele; for Interaction of substitutions in compound (double-substitution) alleles with A222V: growth at 50 and 25 ug/ml folinic acid
# [2] = tested on: human MTHFR; assay: Thermolability of MTHFR variants (heat treatment at 55° C. before enzyme assay); type: biochemical
# Protocol: MTHFR enzyme activity assay. The assay, which measures the reverse reaction of that catalyzed by MTHFR under physiological conditions, was as described (Shan et al, 1999, supra) with the following modifications: Yeast extracts were created by bead lysis of 40 CD595 cell equivalents (fol3Δ met13Δ cells supplemented with folinic acid and methionine as above) in 350 ul of Lysis Buffer (100 mM Sucrose, 50 mM KHPO4 (pH 6.3), protease inhibitor cocktail). Extracts were clarified by a brief microcentrifugation, and 10-200 ug of extract used to determine the linear range of activity. Radiolabeled substrate (5-[^14C]MeTHF) was from GE Healthcare Life Sciences. For heat treatment, the reaction mixes without 5-[^14C]MeTHF were heated to 55° C. for the indicated times at which point 5-[^14C]MeTHF was added back and the reaction proceeded.
# In addition to measuring specific activity, variants were tested for thermolability (a measure of enzyme stability) by heat treatment at 55° C. for various times.
# [3] = upper level of intake considered safe for adults; cited from earlier work
# [4] = molecular target: T1, human MTHFR (Homo sapiens, UniProt P42898); assay: In vivo yeast complementation growth assay: MTHFR alleles in fol3 met13 haploid yeast, growth without methionine with titrated folinic acid; type: cell-based; settings: folinic acid above 50 ug/ml; fol3 met13 cells
# T1 construct: expressed in transfected cells; host or cells: Saccharomyces cerevisiae fol3Δ::KanMX met13Δ::KanMX (S288c background), GAL1 promoter
# [5] = tested on: fol3Δ::KanMX MET13 haploid yeast; type: cell-based, S. cerevisiae; settings: for Effect of folinic acid supplementation on growth: fol3Δ MET13 cells
# [6] = tested on: human CBS; assay: Yeast complementation assay for CBS as a function of pyridoxine (cys4, sno/snz sextuple-delete strain); type: cell-based; settings: qualitative growth on solid media
# T1 sequence (P42898 whole entry): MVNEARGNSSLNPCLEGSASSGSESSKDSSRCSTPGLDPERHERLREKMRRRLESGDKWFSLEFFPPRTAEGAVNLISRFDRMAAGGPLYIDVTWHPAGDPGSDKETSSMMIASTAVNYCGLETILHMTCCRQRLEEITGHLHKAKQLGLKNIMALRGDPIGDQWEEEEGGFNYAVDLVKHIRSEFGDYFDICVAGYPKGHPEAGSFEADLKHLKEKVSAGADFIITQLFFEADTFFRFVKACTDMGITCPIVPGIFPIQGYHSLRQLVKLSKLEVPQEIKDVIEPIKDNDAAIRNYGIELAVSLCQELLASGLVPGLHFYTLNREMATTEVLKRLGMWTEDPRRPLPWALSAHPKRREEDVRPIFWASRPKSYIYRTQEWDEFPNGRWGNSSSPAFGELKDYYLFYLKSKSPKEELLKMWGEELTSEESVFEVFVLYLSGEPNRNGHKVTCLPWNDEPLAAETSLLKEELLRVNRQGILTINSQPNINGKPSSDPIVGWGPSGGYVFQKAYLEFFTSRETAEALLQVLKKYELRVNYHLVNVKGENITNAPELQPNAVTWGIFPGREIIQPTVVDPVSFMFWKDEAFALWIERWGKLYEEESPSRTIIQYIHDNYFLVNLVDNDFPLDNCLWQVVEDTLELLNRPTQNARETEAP
molecule,measurement,setting,value
"R519C: low-frequency human MTHFR variant, regulatory domain substitution R519C",Functional impact / folate-responsiveness of MTHFR allele (growth in the absence of methionine),[1],benign
"A222V: common functionally impaired human MTHFR variant, catalytic domain substitution A222V",Functional impact / folate-responsiveness of MTHFR allele (growth in the absence of methionine),[1],folate-remedial behavior
same,Thermolability,[2],lost nearly all activity
"D223N: novel low-frequency human MTHFR variant, catalytic domain substitution D223N",Functional impact / folate-responsiveness of MTHFR allele (growth in the absence of methionine),[1],folate-remedial activity similar to A222V (though less severely impaired); also recorded: folate-remedial behavior
same,Thermolability,[2],increased thermolability
"R134C: low-frequency human MTHFR variant, catalytic domain substitution R134C",Functional impact / folate-responsiveness of MTHFR allele (growth in the absence of methionine),[1],"severely impaired at all folate concentrations; also recorded: responsive, but not a remedial allele; also recorded: nearly loss-of-function"
C[N+](C)(C)CCO [Choline],UL (Upper Limit),[3],3500 mg
"major allele: most common human MTHFR allele in the population, expressed in yeast",Functional impact / folate-responsiveness of MTHFR allele (growth in the absence of methionine),[1],did not completely compensate for loss of Met13p
"M110I: low-frequency human MTHFR variant, catalytic domain substitution M110I",MTHFR function (growth) relative to the major allele,[1]; 50 ug/ml folinic acid,nearly indistinguishable from the major allele
same,Interaction of substitutions in compound (double-substitution) alleles with A222V,[1],synergized when combined with A222V
same,Functional impact / folate-responsiveness of MTHFR allele (growth in the absence of methionine),[1],folate-remedial behavior
same,Functional impact / folate-responsiveness of MTHFR allele (growth in the absence of methionine),[1]; listed as MilOl,folate-remedial activity similar to A222V (though less severely impaired)
"H213R: low-frequency human MTHFR variant, catalytic domain substitution H213R",Functional impact / folate-responsiveness of MTHFR allele (growth in the absence of methionine),[1],benign
M110I A222V: doubly-substituted compound human MTHFR allele,Interaction of substitutions in compound (double-substitution) alleles with A222V,[1],functioned more poorly than the sum of the individual alleles
Vitamin B-6,UL (Upper Limit),[3],100 mg
O=C1O[C@H]([C@@H](O)CO)C(O)=C1O [Vitamin C],UL (Upper Limit),[3],2000 mg
"D291N: low-frequency human MTHFR variant, catalytic domain substitution D291N",Interaction of substitutions in compound (double-substitution) alleles with A222V,[1],synergized when combined with A222V
same,Functional impact / folate-responsiveness of MTHFR allele (growth in the absence of methionine),[1],folate-remedial behavior
O=C(O)c1cccnc1 [Niacin],UL (Upper Limit),[3],35 mg
5-formyl-tetrahydrofolate [folinic acid],Effect of folinic acid supplementation on growth of cells expressing the major human MTHFR allele,[4],did not confer a significant growth advantage
same,Folinic acid supplementation compared to growth of FOL3 cells,[5]; fol3Δ cells vs FOL3 cells,did not completely compensate for lack of endogenous folate biosynthesis
same,Effect of folinic acid supplementation on growth,[5]; folinic acid above 50 ug/ml,did not confer any significant growth advantage
same,Effect of folinic acid supplementation on growth,[5]; folinic acid below 50 ug/ml,growth clearly correlated with available folinic acid in the medium
"1278T: homocystinuria allele of human CBS, vitamin B6-responsive (protein, UniProt P35520 1-551, looked up, variant I278T) Cystathionine beta-synthase: MPSETPQAEVGPTGCPHRSGPHSAKGSLEKGSPEDKEAKEPLWIRPDAPSRCTWQLGRPASESPHHHTAPAKSPKILPDILKKIGDTPMVRINKIGKKFGLKCELLAKCEFFNAGGSVKDRISLRMIEDAERDGTLKPGDTIIEPTSGNTGIGLALAAAVRGYRCIIVMPEKMSSEKVDVLRALGAEIVRTPTNARFDSPESHVGVAWRLKNEIPNSHILDQYRNASNPLAHYDTTADEILQQCDGKLDMLVASVGTGGTITGIARKLKEKCPGCRITGVDPEGSILAEPEELNQTEQTTYEVEGIGYDFIPTVLDRTVVDKWFKSNDEEAFTFARMLIAQEGLLCGGSAGSTVAVAVKAAQELQEGQRCVVILPDSVRNYMTKFLSDRWMLQKGFLKEEDLTEKKPWWWHLRVQELGLSAPLTVLPTITCGHTIEILREKGFDQAPVVDEAGVILGMVTLGNMLSSLLAGKVQPSDQVGKVIYKQFKQIRLTDTLGRLSHILEMDHFALVVHEQIQYHSTGKSSQRQMVFGVVTAIDLLNFVAAQERDQK",Rescue of cys4 yeast growth defect as a function of pyridoxine supplementation,[6],more sensitive than the wild-type enzyme to limiting B6 levels
"R266K: homocystinuria allele of human CBS, vitamin B6-responsive (protein, UniProt P35520 1-551, looked up, variant R266K) Cystathionine beta-synthase: MPSETPQAEVGPTGCPHRSGPHSAKGSLEKGSPEDKEAKEPLWIRPDAPSRCTWQLGRPASESPHHHTAPAKSPKILPDILKKIGDTPMVRINKIGKKFGLKCELLAKCEFFNAGGSVKDRISLRMIEDAERDGTLKPGDTIIEPTSGNTGIGLALAAAVRGYRCIIVMPEKMSSEKVDVLRALGAEIVRTPTNARFDSPESHVGVAWRLKNEIPNSHILDQYRNASNPLAHYDTTADEILQQCDGKLDMLVASVGTGGTITGIAKKLKEKCPGCRIIGVDPEGSILAEPEELNQTEQTTYEVEGIGYDFIPTVLDRTVVDKWFKSNDEEAFTFARMLIAQEGLLCGGSAGSTVAVAVKAAQELQEGQRCVVILPDSVRNYMTKFLSDRWMLQKGFLKEEDLTEKKPWWWHLRVQELGLSAPLTVLPTITCGHTIEILREKGFDQAPVVDEAGVILGMVTLGNMLSSLLAGKVQPSDQVGKVIYKQFKQIRLTDTLGRLSHILEMDHFALVVHEQIQYHSTGKSSQRQMVFGVVTAIDLLNFVAAQERDQK",Rescue of cys4 yeast growth defect as a function of pyridoxine supplementation,[6],more sensitive than the wild-type enzyme to limiting B6 levels
